According to ChEMBL document CHEMBL4819053, “Alkyne-Bridged α-Conotoxin Vc1.1 Potently Reverses Mechanical Allodynia in Neuropathic Pain Models” (J Med Chem, 2021):
The source made the active and inactive calls.

Tested on: Rattus norvegicus
Assay: Antiallodynic activity in Sprague-Dawley rat model of neuropathic mechanical allodynia assessed as increase in paw withdrawal threshold at 100 mg/kg, po measured at 2 to 6 hrs post last dose by von Frey test
Format: functional, organism-based
Settings: time 2-6 hrs

NCC1(CC(=O)O)CCCCC1
Activity: Active
